In one series the test system is Smn protein. Briefly: Smn protein assay (Smn HTRF) in cultured cells. The class given is cell-based, human. The following applies: Homo sapiens, Fibroblast, GM03813 SMA Type 1 patient fibroblasts, 48 hours, HTRF; for maximal fold induction: 7-point concentration data, relative to vehicle, read-out: maximum fold (Fold) increase of Smn protein; for EC (1.5-fold): concentration producing 1.5 times Smn protein vs DMSO vehicle, read-out: EC1.5x for Smn protein expression. The gist of the method: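 SMA patient fibroblasts (5,000/well) were exposed to a 7-point, 3.16-fold compound dilution series for 48 hours at 37° C, in triplicate. Lysates were read by HTRF with anti-SMN d2/kryptate at 665/620 nm. Blank-corrected signal was expressed as fold over DMSO vehicle, giving the EC1.5x and the maximum fold increase.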
(In general: TR-FRET usually uses a lanthanide donor and a delayed reading to cut background.)

The test system of series [1] is full length SMN2 minigene mRNA containing SMN2 exon 7 (SMN2-A minigene). Briefly: SMN2 minigene mRNA splicing RT-qPCR assay in cultured cells. The series is classed as cell-based, human. The following applies: Homo sapiens, HEK293-H; HEK293H cells stably transfected with SMN2-A minigene, 24 hours, 7-point concentration curve; concentration giving 1.5-fold SMN2 full length mRNA vs vehicle; read-out: EC1.5x for production of full length SMN2 mRNA. The essentials:
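HEK293H cells stably carrying the SMN2-A minigene were treated 24 h at 37 °C with a 7-point, 3.16-fold test compound series, in duplicate. Multiplex RT-qPCR measured exon 7-containing minigene FL mRNA, normalized to GAPDH and expressed relative to vehicle; EC1.5x is the concentration giving 1.5-fold FL mRNA.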
For orientation: Quantitative PCR measures a nucleic acid by following its amplification.

Our source for the maximal fold induction, EC (1.5-fold) and melting point values is patent US9914722B2, “Compounds for treating spinal muscular atrophy” (PTC Therapeutics Inc., priority 2012, dated 2018).

Broadly, the melting point is the temperature, or range, at which the solid turns liquid.

As to `COc1ccc(-c2cc(=O)c3cc(N4CCNCC4)ccc3o2)cc1F` [Cpd 37, 2-(3-fluoro-4-methoxyphenyl)-6-(piperazin-1-yl)-4H-chromen-4-one], the melting point fell in the range of 178 to 180 °C. For the same compound, in the series on Smn protein, the maximal fold induction is 1.35 to 1.5 and the EC (1.5-fold) was 1 to 3 µM. For the same compound, in series [1], the EC (1.5-fold) lay within 0.1 to 0.3 µM.
Taken in the same sequence, the figures for `COc1ccc(-c2cc(=O)c3cc(N4C[C@@H](C)N[C@@H](C)C4)ccc3o2)cc1F` [Cpd 39, 6-[(3R,5S)-3,5-dimethylpiperazin-1-yl]-2-(3-fluoro-4-methoxyphenyl)-4H-chromen-4-one] were 180 to 182 °C, 1.5 to 1.65, 3 to 10 µM and 0.1 to 0.3 µM.
The matching figures for `COc1ccc(-c2cc(=O)c3cc(N4CCN[C@H](C)C4)ccc3o2)cc1F` [Cpd 40, 2-(3-fluoro-4-methoxyphenyl)-6-[(3R)-3-methylpiperazin-1-yl]-4H-chromen-4-one]: 110 to 112 °C, 1.35 to 1.5, 1 to 3 µM and 0.1 to 0.3 µM.
`CCOc1ccc(-c2cc(=O)c3cc(N4CCNCC4)ccc3o2)cc1` [Cpd 41, 2-(4-ethoxyphenyl)-6-(piperazin-1-yl)-4H-chromen-4-one]: the melting point lay within 180 to 182 °C. In addition, in the series with Smn protein, the maximal fold induction is not above 1.2. Also, the EC (1.5-fold) in series [1] lay in the range of 0.3 to 1 µM.
Regarding `CCOc1ccc(-c2cc(=O)c3cc(N4CCN[C@@H](C)C4)ccc3o2)cc1` [Cpd 42, 2-(4-ethoxyphenyl)-6-[(3S)-3-methylpiperazin-1-yl]-4H-chromen-4-one], the melting point fell in the range of 93 to 94 °C. For the same compound, the maximal fold induction in the series on Smn protein fell in the range of 1.2 to 1.35. Moreover, the EC (1.5-fold) in series [1] was 0.3 to 1 µM.
Compound `CCOc1ccc(-c2cc(=O)c3cc(N4CCN[C@H](C)C4)ccc3o2)cc1` [Cpd 44, 2-(4-ethoxyphenyl)-6-[(3R)-3-methylpiperazin-1-yl]-4H-chromen-4-one] had a melting point of 92 to 94 °C. The maximal fold induction in the series with Smn protein was not above 1.2. For the same compound, the EC (1.5-fold) in series [1] lay within 1 to 3 µM.
Regarding `COc1cc(F)c(-c2cc(=O)c3cc(N4CCNCC4)ccc3o2)cc1OC` [Cpd 45, 2-(2-fluoro-4,5-dimethoxyphenyl)-6-(piperazin-1-yl)-4H-chromen-4-one], the melting point fell in the range of 130 to 132 °C. In the series with Smn protein, the maximal fold induction was 1.2 to 1.35. Also, the EC (1.5-fold) in series [1] lay within 1 to 3 µM.
In the case of `COc1cc(F)c(-c2cc(=O)c3cc(N4CCN[C@@H](C)C4)ccc3o2)cc1OC` [Cpd 46, 2-(2-fluoro-4,5-dimethoxyphenyl)-6-[(3S)-3-methylpiperazin-1-yl]-4H-chromen-4-one], the melting point was in the range of 179 to 181 °C. Moreover, in the series with Smn protein, the maximal fold induction lay in the range of 1.5 to 1.65 and the EC (1.5-fold) was in the range of 1 to 3 µM. In addition, in series [1], the EC (1.5-fold) is 0.3 to 1 µM.
Taken in the same sequence, the figures for `COc1cc(F)c(-c2cc(=O)c3cc(N4C[C@@H](C)N[C@@H](C)C4)ccc3o2)cc1OC` [Cpd 47, 6-[(3R,5S)-3,5-dimethylpiperazin-1-yl]-2-(2-fluoro-4,5-dimethoxyphenyl)-4H-chromen-4-one] were 164 to 166 °C, 1.5 to 1.65, 1 to 3 µM and 1 to 3 µM.
`COc1cc(F)c(-c2cc(=O)c3cc(N4CCN[C@H](C)C4)ccc3o2)cc1OC` [Cpd 48, 2-(2-fluoro-4,5-dimethoxyphenyl)-6-[(3R)-3-methylpiperazin-1-yl]-4H-chromen-4-one] showed a melting point of 180 to 182 °C. Also, in the series on Smn protein, the maximal fold induction lay in the range of 1.5 to 1.65 and the EC (1.5-fold) was in the range of 1 to 3 µM. In addition, the EC (1.5-fold) in series [1] lay within 1 to 3 µM.
`CC(C)Oc1ccc(-c2cc(=O)c3cc(N4CCNCC4)ccc3o2)cc1` [Cpd 49, 6-(piperazin-1-yl)-2-[4-(propan-2-yloxy)phenyl]-4H-chromen-4-one] showed a melting point of 126 to 128 °C. In the series on Smn protein, the maximal fold induction was not above 1.2. For the same compound, the EC (1.5-fold) in series [1] is 1 to 3 µM.
Compound `CC(C)Oc1ccc(-c2cc(=O)c3cc(N4CCN[C@@H](C)C4)ccc3o2)cc1` [Cpd 50, 6-[(3S)-3-methylpiperazin-1-yl]-2-[4-(propan-2-yloxy)phenyl]-4H-chromen-4-one] returned a melting point of 128 to 130 °C. Besides, the maximal fold induction in the series with Smn protein was not above 1.2. In addition, the EC (1.5-fold) in series [1] is 1 to 3 µM.
Consider `COc1ccc(-c2cc(=O)c3cc(N4CCNCC4)ccc3o2)cc1C` [Cpd 51, 2-(4-methoxy-3-methylphenyl)-6-(piperazin-1-yl)-4H-chromen-4-one], for which the melting point was in the range of 98 to 100 °C. Moreover, the maximal fold induction with Smn protein was in the range of 1.35 to 1.5. In series [1], the EC (1.5-fold) fell in the range of 0.3 to 1 µM.
`COc1ccc(-c2cc(=O)c3cc(N4CCN[C@@H](C)C4)ccc3o2)cc1C` [Cpd 52, 2-(4-methoxy-3-methylphenyl)-6-[(3S)-3-methylpiperazin-1-yl]-4H-chromen-4-one] registered a melting point of 174 to 176 °C. The maximal fold induction in the series on Smn protein fell in the range of 1.35 to 1.5. For the same compound, the EC (1.5-fold) in series [1] lay within 0.1 to 0.3 µM.
Consider `COc1ccc(-c2cc(=O)c3cc(N4C[C@@H](C)N[C@@H](C)C4)ccc3o2)cc1C` [Cpd 53, 6-[(3R,5S)-3,5-dimethylpiperazin-1-yl]-2-(4-methoxy-3-methylphenyl)-4H-chromen-4-one], for which the melting point was 186 to 188 °C. In addition, the maximal fold induction with Smn protein lay within 1.2 to 1.35. The EC (1.5-fold) in series [1] was 0.3 to 1 µM.
For the compound `COc1ccc(-c2cc(=O)c3cc(N4CCN[C@H](C)C4)ccc3o2)cc1C` [Cpd 54, 2-(4-methoxy-3-methylphenyl)-6-[(3R)-3-methylpiperazin-1-yl]-4H-chromen-4-one], the melting point lay within 164 to 166 °C. For the same compound, the maximal fold induction with Smn protein lay in the range of 1.2 to 1.35. Further, the EC (1.5-fold) in series [1] is 0.3 to 1 µM.
`COc1ccc(-c2cc(=O)c3cc(N4CCNCC4)ccc3o2)cn1` [Cpd 55, 2-(6-methoxypyridin-3-yl)-6-(piperazin-1-yl)-4H-chromen-4-one]: the melting point fell in the range of 165 to 170 °C. Besides, the maximal fold induction with Smn protein was 1.2 to 1.35. In addition, in series [1], the EC (1.5-fold) is 0.3 to 1 µM.
`COc1ccc(-c2cc(=O)c3cc(N4CCN[C@@H](C)C4)ccc3o2)cn1` [Cpd 56, 2-(6-methoxypyridin-3-yl)-6-[(3S)-3-methylpiperazin-1-yl]-4H-chromen-4-one] registered a melting point of 196 to 200 °C. In addition, the maximal fold induction with Smn protein lay in the range of 1.35 to 1.5. Besides, the EC (1.5-fold) in series [1] was in the range of 0.3 to 1 µM.
Regarding `COc1ccc(-c2cc(=O)c3cc(N4CCN[C@H](C)C4)ccc3o2)cn1` [Cpd 57, 2-(6-methoxypyridin-3-yl)-6-[(3R)-3-methylpiperazin-1-yl]-4H-chromen-4-one], the melting point was 198 to 200 °C. Besides, in the series on Smn protein, the maximal fold induction lay within 1.2 to 1.35. In addition, the EC (1.5-fold) in series [1] was in the range of 0.3 to 1 µM.
Take `COc1ccc(-c2cc(=O)c3cc(N4CCNCC4)ccc3o2)cc1Cl` [Cpd 58, 2-(3-chloro-4-methoxyphenyl)-6-(piperazin-1-yl)-4H-chromen-4-one]: the melting point fell in the range of 145 to 150 °C. Besides, in the series on Smn protein, the maximal fold induction is 1.35 to 1.5 and the EC (1.5-fold) is 1 to 3 µM. The EC (1.5-fold) in series [1] was not above 0.1 µM.
